We go through 13 molecules from patent publication US7109333B2, “Heterocyclic compounds” (SmithKline Beecham Corporation, priority 1998, dated 2006).

Where a name gives a salt, the structure may show the parent alone.

In assay [1] the test system is N87 gastric tumor cell line. Briefly: Methylene blue growth inhibition assay, N87. It is filed as cell-based. The conditions noted are these: Homo sapiens, 72 h; N87, 3 days; read-out: Cell Proliferation N87, IC50. As to the method:
(§1) Human breast (BT474), head and neck (HN5) and gastric tumor (N87) cell lines were cultured in low glucose DMEM (Life Technologies 12320–032) containing 10% fetal bovine serum (FBS) at 37° C. in a humidified 10% CO2, 90% air incubator. The SV40 transformed human mammary epithelial cell line HB4a was transfected with either human H-ras cDNA (HB4a r4.2) or the human c-erbB2 cDNA (HB4a c5.2). The HB4a clones were cultured in RPMI containing 10% FBS, insulin (5 μg/ml), hydrocortisone (5 μg/ml), supplemented with the selection agent hygromycin B (50 μg/ml). Cells were harvested using trypsin/EDTA, counted using a haemocytometer, and plated in […] of the appropriate media, at the following densities, in a 96-well tissue culture plate (Falcon 3075): BT474 10,000 cells/well, HN5 3,000 cells/well, N87 10,000 cells/well, HB4a c5.2 3,000 cells/well, HB4a r4.2 3,000 cells/well. The next day, compounds were diluted in DMEM containing […] gentamicin, at twice the final required concentration, from 10 mM stock solutions in DMSO. […] of these dilutions were added to the […] of media currently on the cell plates. Medium containing 0.6% DMSO was added to control wells. Compounds diluted in DMEM were added to all cell lines, including the HB4a r4.2 and HB4a c5.2 cell lines. The final concentration of DMSO in all wells was 0.3%. Cells were incubated at 37° C., 10% CO2 for 3 days. Medium was removed by aspiration. Cell biomass was estimated by staining cells with 100 μl per well methylene blue (Sigma M9140, 0.5% in 50:50 ethanol:water), and incubation at room temperature for at least 30 minutes. Stain was removed, and the plates rinsed under a gentle stream of water, and air-dried. To release stain from the cells 100 μl of solubilization solution was added (1% N-lauroyl sarcosine, Sodium salt, Sigma L5125, in PBS), and plates were shaken gently for about 30 minutes. Optical density at 620 nm was measured on a microplate reader. Percent inhibition of cell growth was calculated relative to vehicle treated control wells. Concentration of compound that inhibits 50% of cell growth (IC50) was interpolated using nonlinear regression (Levenberg-Marquardt) and the equation, y=Vmax*(1−(x/(K+x)))+Y2, where “K” was equal to the IC50.

Assay [2] concerns BT474 breast tumor cell line. Briefly: Methylene blue growth inhibition assay, BT474. The conditions noted are these: Homo sapiens, BT-474, 72 h; BT474, 3 days; read-out: Cell Proliferation BT474, IC50. The format is cell-based. On the procedure: as §1
Assay [3] has as its system HB4a r4.2 (HB4a transfected with human H-ras cDNA). Nature of the assay: Methylene blue growth inhibition assay, HB4a ras. It is filed as cell-based. The conditions noted are these: 72 h, HB4a r4.2, 3 days, read-out: Cell Proliferation HB4a ras, IC50. On the procedure: as §1
Assay [4] concerns HB4a c5.2 (HB4a transfected with human c-erbB2 cDNA). Briefly: Methylene blue growth inhibition assay, HB4a erbB2. It is filed as cell-based. The conditions noted are these: 72 h, HB4a c5.2, 3 days, read-out: Cell Proliferation HB4a erbB2, IC50. As to the method:
as §1

For assay [5], the system named is HN5 head and neck tumor cell line. Briefly: Methylene blue growth inhibition assay, HN5. It is filed as cell-based. The note with it: Homo sapiens, 72 h; HN5, 3 days; read-out: Cell Proliferation HN5, IC50. As to the method:
as §1

The target in assay [6] is T1, c-erbB-2 (Homo sapiens, UniProt P04626).
T1 construct: baculovirus expressed, recombinant constructs of the intracellular domains of c-erbB-2 and c-erbB-4; made in house
Nature of the assay: Substrate phosphorylation assay, erbB2, assay (b) (SPA, 33P-ATP). The format is biochemical. The conditions noted are these: Tables 1A and 1B. The source says: The substrate phosphorylation assays use baculovirus expressed, recombinant constructs of the intracellular domains of c-erbB-2 and c-erbB-4 that are constitutively active and EGFr isolated from solubilised A431 cell membranes. The method measures the ability of the isolated enzymes to catalyse the transfer of the g-phosphate from ATP onto tyrosine residues in a biotinylated synthetic peptide (Biotin-[…]. Substrate phosphorylation was detected following either of the following two procedures: a.) c-ErbB-2, c-ErbB4 or EGFr were incubated for 30 minutes, at room temperature, with 10 mM MnCl2, 10 mM ATP, 5 mM peptide, and test compound (diluted from a 5 mM stock in DMSO, final DMSO concentration is 2%) in 40 mM HEPES buffer, pH 7.4. The reaction was stopped by the addition of EDTA (final concentration 0.15 mM) and a sample was transferred to a streptavidin-coated 96-well plate. The plate was washed and the level of phosphotyrosine on the peptide was determined using a Europium-labelled antiphosphotyrosine antibody and quantified with a time-resolved fluorescence technique. b.) ErbB2 was incubated for 50 minutes at room temperature with 15 mM MnCl2, 2 mM ATP, 0.25 mCi [γ-^33P] ATP/well, 5 mM peptide substrate, and test compound (diluted from a 10 mM stock in DMSO, final DMSO concentration is 2%) in 50 mM MOPS pH 7.2. The reaction was terminated by the addition of […] of PBS containing 2.5 mg/ml streptavidin-coated SPA beads (Amersham Inc.), 50 mM ATP, 10 mM EDTA and 0.1% TX-100. The microtitre plates were sealed and SPA beads were allowed to settle for at least six hours. The SPA signal was measured using a Packard Topcount 96-well plate scintillation counter (Packard Instrument Co., Meriden, Conn.).

T1 sequence (P04626 676-1255 limits assumed): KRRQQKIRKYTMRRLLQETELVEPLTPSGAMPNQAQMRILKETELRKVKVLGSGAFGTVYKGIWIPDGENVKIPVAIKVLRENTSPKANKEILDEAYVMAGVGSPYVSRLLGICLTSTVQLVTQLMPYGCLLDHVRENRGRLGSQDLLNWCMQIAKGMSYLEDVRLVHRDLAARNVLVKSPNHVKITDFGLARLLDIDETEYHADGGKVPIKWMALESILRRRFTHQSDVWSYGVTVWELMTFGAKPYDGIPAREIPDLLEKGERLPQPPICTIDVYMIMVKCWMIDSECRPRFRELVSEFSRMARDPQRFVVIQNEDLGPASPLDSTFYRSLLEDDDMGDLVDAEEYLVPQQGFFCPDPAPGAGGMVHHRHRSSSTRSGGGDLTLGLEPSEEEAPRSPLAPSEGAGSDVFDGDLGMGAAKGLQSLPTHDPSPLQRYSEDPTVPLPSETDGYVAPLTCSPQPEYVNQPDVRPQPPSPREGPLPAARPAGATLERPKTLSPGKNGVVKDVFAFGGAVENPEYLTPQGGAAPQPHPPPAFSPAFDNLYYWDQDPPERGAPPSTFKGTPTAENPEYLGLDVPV

`CS(=O)(=O)CCNCc1coc(-c2cc3c(Nc4ccc(OCc5cccc(F)c5)cc4)ncnc3cn2)c1` [Example 6, (4-(3-Fluorobenzyloxy)-phenyl)-(6-(4-((2-methanesulphonyl-ethylamino)-methyl)-furan-2-yl)-pyrido[3,4-d]pyrimidin-4-yl)-amine dihydrochloride]: the IC50 in assay [1] was less than 5 µM; in assay [2], less than 5 µM; in assay [3] it was 25 to 50 µM; in assay [4], less than 5 µM; in assay [5] it was less than 5 µM; in assay [6], 0.1 to 1 µM.

Take `CS(=O)(=O)CCNCc1ccc(-c2ccc3ncnc(Nc4ccc(OCc5cccc(F)c5)cc4)c3c2)o1` [Example 8, N-{4-[(3-fluorobenzyl)oxy]phenyl}-6-[5-({[2-(methanesulphonyl)ethyl]amino}methyl)-2-furyl]-4-quinazolinamine]: the IC50 in assay [1] is less than 5 µM; in assay [2] it was less than 5 µM; in assay [3], 5 to 25 µM; in assay [4], less than 5 µM; in assay [5], less than 5 µM; in assay [6], less than 0.1 µM.

For `COc1cc(Nc2ncnc3ccc(-c4ccc(CNCCS(C)(=O)=O)o4)cc23)ccc1OCc1cccc(F)c1` [Example 9, N-{4-[(3-fluorobenzyl)oxy]-3-methoxyphenyl}-6-[5-({[2-(methanesulphonyl)ethyl]amino}methyl)-2-furyl]-4-quinazolinamine], the IC50 in assay [1] is less than 5 µM; in assay [2] it was less than 5 µM; in assay [3], 5 to 25 µM; in assay [4], less than 5 µM; in assay [5] it was less than 5 µM.

For the molecule `COc1cc2ncnc(Nc3ccc(OCc4ccccc4)cc3)c2cc1-c1ccc(CNCCS(C)(=O)=O)o1` [Example 10], the IC50 in assay [1] was less than 5 µM; in assay [2] it was less than 5 µM; in assay [3], 5 to 25 µM; in assay [4], less than 5 µM; in assay [5], less than 5 µM; in assay [6], less than 0.1 µM.

As to `CS(=O)(=O)CCNCc1coc(-c2ccc3ncnc(Nc4ccc(OCc5ccccc5)cc4)c3c2)c1` [Example 11, N-[4-(benzyloxy)phenyl]-6-[4-({[2-(methanesulphonyl)ethyl]amino}methyl)-2-furyl]-4-quinazolinamine], the IC50 was less than 5 µM in assay [1]; less than 5 µM in assay [2]; greater than 50 µM in assay [3]; less than 5 µM in assay [4]; less than 5 µM in assay [5]; less than 0.1 µM in assay [6].

On to `COc1cc(Nc2ncnc3ccc(-c4csc(CNCCS(C)(=O)=O)n4)cc23)ccc1OCc1cccc(F)c1` [Example 12, N-{4-[(3-fluorobenzyl)oxy]-3-methoxyphenyl}-6-[2-({[2-(methanesulphonyl)ethyl]amino}methyl)-1,3-thiazol-4-yl]-4-quinazolinamine], for which the IC50 in assay [1] was less than 5 µM; in assay [2], less than 5 µM; in assay [3], greater than 50 µM; in assay [4], less than 5 µM; in assay [5], 5 to 25 µM; in assay [6], 0.1 to 1 µM.

Regarding `CS(=O)(=O)CCNCc1nc(-c2ccc3ncnc(Nc4ccc(OCc5cccc(Br)c5)cc4)c3c2)cs1` [Example 13, N-{4-[(3-bromobenzyl)oxy]phenyl}-6-[2-({[2-(methanesulphonyl)ethyl]amino}methyl)-1,3-thiazol-4-yl]-4-quinazolinamine], the IC50 in assay [1] is 5 to 25 µM; in assay [2], 5 to 25 µM; in assay [3], greater than 50 µM; in assay [4], 5 to 25 µM; in assay [5] it was 25 to 50 µM; in assay [6], 0.1 to 1 µM.

For the molecule `CS(=O)(=O)CCNCc1nc(-c2ccc3ncnc(Nc4ccc(OCc5cccc(F)c5)cc4)c3c2)cs1` [Example 14, N-{4-[(3-fluorobenzyl)oxy]phenyl}-6-[2-({[2-(methanesulphonyl)ethyl]amino}methyl)-1,3-thiazol-4-yl]-4-quinazolinamine], the IC50 in assay [1] is less than 5 µM; in assay [2] it was less than 5 µM; in assay [3], greater than 50 µM; in assay [4], less than 5 µM; in assay [5], less than 5 µM; in assay [6], less than 0.1 µM.

For the molecule `CS(=O)(=O)CCNCc1nc(-c2ccc3ncnc(Nc4ccc(OCc5ccccc5)c(F)c4)c3c2)cs1` [Example 15, N-[4-(benzyloxy)-3-fluorophenyl]-6-[2-({[2-(methanesulphonyl)ethyl]amino}methyl)-1,3-thiazol-4-yl]-4-quinazolinamine], the IC50 in assay [1] was less than 5 µM; in assay [2], less than 5 µM; in assay [3], greater than 50 µM; in assay [4], less than 5 µM; in assay [5], less than 5 µM; in assay [6], less than 0.1 µM.

In the case of `COc1cc2ncnc(Nc3ccc4c(cnn4Cc4ccccc4)c3)c2cc1-c1ccc(CNCCS(C)(=O)=O)o1` [Example 16, N-(1-benzyl-1H-indazol-5-yl)-7-methoxy-6-[5-({[2-(methanesulphonyl)ethyl]amino}methyl)-2-furyl]-4-quinazolinamine], the IC50 in assay [1] is less than 5 µM; in assay [2] it was less than 5 µM; in assay [3] it was 5 to 25 µM; in assay [4] it was less than 5 µM; in assay [5] it was less than 5 µM; in assay [6], less than 0.1 µM.

With `CS(=O)(=O)CCNCc1ccc(-c2ccc3ncnc(Nc4ccc(OCc5cccc(C(F)(F)F)c5)cc4)c3c2)o1` [Example 17, 6-[5-({[2-(methanesulphonyl)ethyl]amino}methyl)-2-furyl]-N-(4-{[3-(trifluoromethyl)benzyl]oxy}phenyl)-4-quinazolinamine], the IC50 is 5 to 25 µM in assay [1]; less than 5 µM in assay [2]; 5 to 25 µM in assay [3]; 5 to 25 µM in assay [4]; 5 to 25 µM in assay [5]; less than 0.1 µM in assay [6].

On to `CS(=O)(=O)CCNCc1ccc(-c2ccc3ncnc(Nc4ccc(OCc5cccc(F)c5)c(F)c4)c3c2)o1` [Example 18, N-{3-fluoro-4-[(3-fluorobenzyl)oxy]phenyl}-6-[5-({[2-(methanesulphonyl)ethyl]amino}methyl)-2-furyl]-4-quinazolinamine], for which the IC50 is less than 5 µM in assay [1]; less than 5 µM in assay [2]; 5 to 25 µM in assay [3]; less than 5 µM in assay [4]; less than 5 µM in assay [5]; less than 0.1 µM in assay [6].

For the molecule `CS(=O)(=O)CCNCc1ccc(-c2ccc3ncnc(Nc4ccc(OCc5cccc(F)c5)c(Cl)c4)c3c2)o1` [Example 29, N-{3-Chloro-4-[(3-fluorobenzyl)oxy]phenyl}-6-[5-({[2-(methanesulphonyl)ethyl]amino}methyl)-2-furyl]-4-quinazolinamine], the IC50 in assay [1] was less than 5 µM; in assay [2] it was less than 5 µM; in assay [3] it was greater than 50 µM; in assay [4], less than 5 µM; in assay [5] it was less than 5 µM.
